Results on 6 molecules are retold here after ChEMBL document CHEMBL5344421, “Chemical Analysis and Antidiabetic Potential of a Decoction from Stevia serrata Roots” (J Nat Prod, 2024).

The species entered for assay [1] is Sus scrofa. The assay can be described thus: (§1) Inhibition of porcine pancreatic alpha-amylase measured after 40 mins by spectrophotocolorimetric enzymatic assay.
Assay [2] concerns the target T1, Pancreatic triacylglycerol lipase (Sus scrofa) (UniProt P00591).
T1 sequence (whole entry): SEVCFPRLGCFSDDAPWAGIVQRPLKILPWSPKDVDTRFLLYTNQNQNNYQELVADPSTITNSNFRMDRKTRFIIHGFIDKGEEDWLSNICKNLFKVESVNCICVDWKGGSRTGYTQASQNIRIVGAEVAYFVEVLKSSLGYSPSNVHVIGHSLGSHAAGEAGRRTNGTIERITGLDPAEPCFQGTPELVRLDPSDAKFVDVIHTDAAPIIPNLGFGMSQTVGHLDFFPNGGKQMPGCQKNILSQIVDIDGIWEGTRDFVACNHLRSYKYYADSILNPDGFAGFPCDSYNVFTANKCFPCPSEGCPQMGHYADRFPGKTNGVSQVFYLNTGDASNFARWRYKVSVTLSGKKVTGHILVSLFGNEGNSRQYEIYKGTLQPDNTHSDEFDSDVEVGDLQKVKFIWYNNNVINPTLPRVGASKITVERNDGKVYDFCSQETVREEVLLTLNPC
Nature of the assay: Inhibition of porcine pancreatic lipase measured after 40 mins by spectrophotocolorimetric enzymatic assay.

In assay [3] the target is T2, Tyrosine-protein phosphatase non-receptor type 1 (Homo sapiens, UniProt P18031).
T2 sequence (P18031 whole entry): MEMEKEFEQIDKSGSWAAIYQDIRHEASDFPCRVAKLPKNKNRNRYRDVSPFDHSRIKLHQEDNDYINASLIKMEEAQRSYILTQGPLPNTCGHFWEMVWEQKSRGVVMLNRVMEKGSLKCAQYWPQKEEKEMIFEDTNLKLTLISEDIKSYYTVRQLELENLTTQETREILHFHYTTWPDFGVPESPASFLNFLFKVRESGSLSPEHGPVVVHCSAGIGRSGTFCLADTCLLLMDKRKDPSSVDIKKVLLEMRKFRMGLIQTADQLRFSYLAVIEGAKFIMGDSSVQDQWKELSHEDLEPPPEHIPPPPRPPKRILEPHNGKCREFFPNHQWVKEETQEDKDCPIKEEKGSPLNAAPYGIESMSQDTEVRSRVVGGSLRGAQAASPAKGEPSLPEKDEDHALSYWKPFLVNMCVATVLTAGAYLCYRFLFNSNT
Nature of the assay: Inhibition of Protein tyrosine phosphatase 1B (unknown origin) activity by spectrophotocolorimetric analysis.

Assay [4] has as its system Mus musculus. The assay can be described thus: Antihyperglycemic activity in STZ-hyperglycemic mouse assessed as decrease in blood glucose level at 150 mg/kg, po measured upto 5 hrs after administration. The class given is functional, organism-based.
The subject of assay [5] is Mus musculus. Nature of the assay: Antihyperglycemic activity in normoglycemic mouse assessed as decrease in at 50 mg/kg, po measured upto 120 min after administration by oral glucose tolerance test. The class given is functional, organism-based.
The test system of assay [6] is Mus musculus. Nature of the assay: Hypoglycemic effect in normoglycemic mouse assessed as decrease in blood glucose level at 5 to 50 mg/kg, po measured upto 5 hrs after administration. It counts as functional, organism-based. As to conditions: dose 5-50 mg/kg.
Assay [7] concerns Mus musculus. The assay can be described thus: Antihyperglycemic activity in STZ-induced hyperglycemic CD1 mouse model assessed as reduction in blood glucose AUC at 50 mg/kg, ip measured upto 120 min intraperitoneal by insulin tolerance test. The class given is functional, organism-based.
Assay [8] has as its system Mus musculus. Nature of the assay: Antihyperglycemic activity in STZ-hyperglycemic mouse assessed as decrease in at 50 mg/kg, po measured upto 120 min after administration by oral glucose tolerance test. It counts as functional, organism-based.
Assay [9] in a line: as §1. Details: species or system Sus scrofa.

Active and inactive are the calls of the source. The rule behind the calls is not given here.

On to `CC(=O)O[C@@H]1[C@@H](OC(C)=O)[C@H](OC(=O)[C@]2(C)CCC[C@@]3(C)[C@@H]4[C@@H](O)C[C@@H]5C[C@@]4(CC[C@@H]32)C[C@@]5(O)CO)O[C@H](CO)[C@H]1O[C@@H]1OC[C@H](O)[C@H](O)[C@H]1O`, for which the inhibition entry in [1] and in assay [2] was “inactive” each time. The same molecule showed an IC50 in assay [3] of 31.8 µM.

`C=C1[C@@H]2CC[C@H]3[C@]4(C)CCC[C@@](C)(C(=O)O[C@@H]5O[C@H](CO)[C@@H](O[C@@H]6OC[C@H](O)[C@H](O)[C@H]6O)[C@H](OC(C)=O)[C@H]5OC(C)=O)[C@H]4CC[C@]3(C2)[C@H]1O[C@@H]1O[C@H](CO)[C@@H](O)[C@H](O)[C@H]1O`: the inhibition entry in [1] and in assay [2] was “inactive” in each case. Besides, the IC50 in [3] worked out at 928 µM.

As for `C=C1C[C@@]23CC[C@H]4[C@@](C)(CCC[C@@]4(C)C(=O)O[C@@H]4O[C@H](CO)[C@@H](O[C@@H]5OC[C@H](O)[C@H](O)[C@H]5O)[C@H](OC(C)=O)[C@H]4OC(C)=O)[C@@H]2[C@@H](O)[C@@H]1C(=O)C3`, the inhibition entry in assay [1] and in assay [2] was “inactive” throughout. For the same molecule, the outcome in [4], in assay [5], in [6], in assay [7] and in [8] was Active. In assay [3], this molecule yielded an IC50 of 527 µM.

With `C[C@H]1O[C@H](O[C@H]2[C@H](O)[C@@H](O)[C@@H](O[C@H]3[C@H](O)[C@@H](O)C(O)O[C@@H]3CO)O[C@@H]2CO)[C@H](O)[C@@H](O)[C@@H]1N[C@H]1C=C(CO)[C@@H](O)[C@H](O)[C@H]1O` (stereo partly specified) [ACARBOSE], the midpoint of inhibition in assay [9], the IC50, lay at 3.2 µM.

On to `CC(=O)O[C@@H]1CC[C@]2(C)[C@H]3CCC4=C([C@@H](C)CCC=C(C)C)CC[C@@]4(C)[C@]3(C)CC[C@H]2C1(C)C`, for which the inhibition entry in assay [1] and in assay [2] was “inactive” each time. The molecule further showed an IC50 in assay [3] of 1180 µM.

For the molecule `CC(=O)O[C@@H]1[C@@H](OC(C)=O)[C@H](OC(=O)[C@]2(C)CCC[C@@]3(C)[C@@H]4[C@@H](O)[C@@H]5C(=O)C[C@]4(C=C5C)CC[C@@H]32)O[C@H](CO)[C@H]1O[C@@H]1OC[C@H](O)[C@H](O)[C@H]1O`, the inhibition result in assay [1] and in assay [2] was “inactive” throughout. Also, in assay [3], the IC50 was 532 µM.
